Data as given in PubChem BioAssay (NCI).
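Results reflect a 48-hour exposure of cells in 96-well plates to compound at five concentrations. At the GI50, growth is halved. TGI marks complete inhibition of growth.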

Key:
Experiment in all cases: NCI tumour cell line growth inhibition, 48 h
KM20L2 colon = system: KM20L2 colon
DMS 273 small cell lung = system: DMS 273 small cell lung
BT-549 breast = system: BT-549 breast
MCF7 breast = system: MCF7 breast
T-47D breast = system: T-47D breast
DLD-1 colon = system: DLD-1 colon
DMS 114 small cell lung = system: DMS 114 small cell lung
MDA-N = system: MDA-N
RXF-631 renal = system: RXF-631 renal

SMILES	TGI (KM20L2 colon)	GI50 (BT-549 breast)	TGI (BT-549 breast)	GI50 (MCF7 breast)	TGI (MCF7 breast)	GI50 (T-47D breast)	TGI (T-47D breast)	TGI (DLD-1 colon)	TGI (DMS 114 small cell lung)	further results
O=[N+]([O-])C(=C1c2ccccc2-c2ccccc21)[N+](=O)[O-]	> 100 µM	–	–	–	–	–	–	–	–	TGI (DMS 273 small cell lung): > 10 µM
COc1ccc(C(=O)c2no[n+]([O-])c2C(=O)c2ccc(OC)cc2)cc1	–	4.84 µM	17.2 µM	4.42 µM	18.2 µM	–	–	–	–	–
O=C(N/N=C/c1coc2ccc(Cl)cc2c1=O)c1cc(O)c(O)c(O)c1	–	23.3 µM	96.6 µM	75.7 µM	> 100 µM	> 100 µM	> 100 µM	–	–	–
C=CCC(NCc1ccccc1)c1cn(C(=O)OCC)c2ccccc12 (stereo unspecified)	–	21.3 µM	46.9 µM	51.8 µM	> 100 µM	33.3 µM	> 100 µM	–	–	–
COc1cc(Br)c(C=Nc2cccc3ccc(OS(=O)(=O)c4ccc([N+](=O)[O-])cc4)cc23)cc1OC	–	–	–	–	–	–	–	> 100 µM	> 100 µM	–
O=C1OC(=O)c2c1cc1cc3c(cc1c2-c1ccc2c(c1)OCO2)OCO3	–	–	> 100 µM	–	> 100 µM	–	> 100 µM	–	–	TGI (MDA-N): > 100 µM
O=[N+]([O-])c1cc2c(ccc3ccccc32)o1	–	–	–	0.212 µM	3.01 µM	1.57 µM	31.9 µM	–	–	–
C[C@H]1CCC/C=C/[C@@H]2C[C@H](O)C[C@H]2[C@H](O)C(O)C(O)C(=O)O1 (stereo partly specified)	–	2.72 µM	> 100 µM	2.64 µM	> 20.1 µM	5.96 µM	> 100 µM	–	–	GI50 (MDA-N): 4.53 µM; TGI (MDA-N): > 100 µM
O=C1c2c[n+](Cc3ccccc3)ccc2-c2nc3ccccc3c3ccnc1c23	–	1.15 µM	4.85 µM	0.163 µM	0.89 µM	0.648 µM	1.7 µM	–	–	–
CC1(C)CCOC(Sc2ccccc2)C1 (stereo unspecified)	> 100 µM	–	–	–	–	–	–	> 100 µM	> 100 µM	TGI (DMS 273 small cell lung): > 100 µM
O=S(=O)([O-])c1ccc(C=Nc2ccccc2)c([O-])c1.O=S(=O)([O-])c1ccc(C=Nc2ccccc2)c([O-])c1.[Co+2]	> 100 µM	–	–	–	–	–	–	> 100 µM	> 100 µM	GI50 (KM20L2 colon): 1.76 µM; GI50 (DLD-1 colon): 5.18 µM; GI50 (DMS 114 small cell lung): > 100 µM
COC(=O)N1C=CC2=C(C)C3Nc4ccccc4C3C(C)=C2C1 (stereo unspecified)	> 100 µM	–	–	–	–	–	–	19.8 µM	> 100 µM	TGI (DMS 273 small cell lung): 11.7 µM
COc1cc2c(cc1OCCCN1CCN(CCCOc3cc4c(cc3OC)C(=O)N3C[C@H](F)C[C@H]3C=N4)CC1)N=C[C@@H]1C[C@@H](F)CN1C2=O	–	0.113 µM	0.464 µM	< 0.0195 µM	> 32.7 µM	0.0847 µM	> 26.5 µM	–	–	–
CCOC(=O)C(c1ccsc1)P(=O)(OCC)OCC (stereo unspecified)	29 µM	–	–	–	–	–	–	44.9 µM	29 µM	TGI (DMS 273 small cell lung): 26.8 µM
Cc1nc2ccccc2c(/C=C/c2ccc(F)cc2)c1C(=O)/C=C/c1ccccc1	–	2.98 µM	13.6 µM	2.08 µM	> 100 µM	1.55 µM	9.87 µM	–	–	–
CC(C)OC(=O)NNc1c(Cl)cc(Cl)cc1Cl	–	–	> 100 µM	–	> 100 µM	–	> 100 µM	–	–	TGI (MDA-N): > 100 µM

SMILES	TGI (KM20L2 colon)	GI50 (BT-549 breast)	TGI (BT-549 breast)	GI50 (MCF7 breast)	TGI (MCF7 breast)	GI50 (T-47D breast)	TGI (T-47D breast)	TGI (DLD-1 colon)	TGI (DMS 114 small cell lung)	further results
Nc1ccccc1SC(CC(=O)c1ccccc1)c1c(Cl)cccc1Cl (stereo unspecified)	–	3.46 µM	13.3 µM	1.25 µM	13.1 µM	2.81 µM	13.4 µM	–	–	–
CN1C=C(C(N)=O)Cc2ccsc21	> 100 µM	–	–	–	–	–	–	> 100 µM	> 100 µM	TGI (DMS 273 small cell lung): > 100 µM
CC12CC(Br)(Br)C(=O)C3C1CCCC32	37.9 µM	–	5.04 µM	–	11.2 µM	–	6.4 µM	13.6 µM	16.2 µM	TGI (DMS 273 small cell lung): 18.2 µM; TGI (MDA-N): 9.66 µM
COC(=O)c1cc2c3cc(Cl)ccc3[nH]c2c2ncccc12	–	> 100 µM	> 100 µM	> 100 µM	> 100 µM	24.7 µM	> 100 µM	–	–	–
COc1cc(/C=C/C(=O)c2cccc(-n3cc(-c4ccccc4)[nH]c3=O)c2)ccc1O	–	2.91 µM	14.7 µM	1.94 µM	6.65 µM	2.72 µM	8.59 µM	–	–	–
O=NN(CC(=O)NNc1ccccc1)CC(=O)NNc1ccccc1	–	> 28.7 µM	> 100 µM	8.13 µM	> 100 µM	6.1 µM	> 100 µM	–	–	–
Oc1ccc(Br)cc1C=Nc1ccc(Oc2ccc(N=Cc3cc(Br)ccc3O)cc2)cc1	> 19.6 µM	–	–	–	–	–	–	> 19.6 µM	> 19.6 µM	TGI (DMS 273 small cell lung): > 19.6 µM
Nc1ncnc2occ(-c3ccc(NC(=O)Nc4cccc(C(F)(F)F)c4)cc3)c12	–	4.32 µM	10.5 µM	2.34 µM	19.3 µM	5.22 µM	15 µM	–	–	–
CN(C)c1ccc(-c2nc(N)nc3c2CCCC3)cc1	> 100 µM	–	–	–	–	–	–	> 100 µM	> 100 µM	TGI (DMS 273 small cell lung): > 100 µM
N/N=C1\C(=O)N(c2ccc(Cl)c(Cl)c2)C(=O)C1C(=O)Nc1ccc(Cl)c(Cl)c1 (stereo unspecified)	> 100 µM	–	–	–	–	–	–	> 100 µM	> 100 µM	TGI (RXF-631 renal): > 100 µM
O=C1C=CC(=O)N1c1ccc2ccccc2c1	–	14.3 µM	27.8 µM	16.6 µM	41.4 µM	3.73 µM	14.7 µM	–	–	–
COc1cc(/C=C2\CC3C4CC=C5C[C@@H](N6CCCC6)CC[C@]5(C)C4CC[C@]3(C)[C@H]2OC(C)=O)ccc1OCCCn1ccnc1 (stereo partly specified)	–	2.19 µM	9.72 µM	1.14 µM	> 21.8 µM	2.19 µM	> 50 µM	–	–	–
CN(C)Cc1c[nH]c2nc[nH]c(=O)c12	–	–	> 100 µM	–	67.7 µM	–	> 100 µM	–	–	TGI (MDA-N): 67.7 µM
Cc1ccc(C)c(NC(=O)C(=O)C(C2C(C)CC(=O)C2CC(=O)O)[N+](=O)[O-])c1 (stereo unspecified)	> 100 µM	–	–	–	–	–	–	> 100 µM	> 100 µM	TGI (RXF-631 renal): > 100 µM
O=C(NCCc1nccs1)c1cnc2c(S)cccc2c1	–	2.61 µM	> 100 µM	1.02 µM	37.5 µM	2.37 µM	62.6 µM	–	–	–
